The values below come from patent US6664065B2, “Measuring viral reverse transcriptase activity” (priority 2000, dated 2003).

Test [1] addresses T1, rHIV RT (Human immunodeficiency virus type 1 group M subtype B, UniProt P03366).
T1 construct: rHIV RT—Worthington Biochemical catalogue No. 5006 (500 U at 12.5 U/μL); purchased Worthington Biochemical 5006
As to the kind of experiment: TaqMan real-time RT-PCR assay of rHIV RT inhibition by a test agent. It counts as biochemical, HIV.
Experimental: In this regard, oligo dT is used as a template for rHIV RT. Oligo dT is complementary to the polyadenylated RNA-component of the total human heart RNA which present in the reaction mixture. rHIV RT forms cDNA from the oligo dT/RNA complex in the presence of dNTP nucleotides.
Thus, the temperature cycling conditions for rHIV RT were about 25° C. for 10 minutes, followed by about 37° C. for 60 minutes, and finally 95° C. for 5 minutes. At 95° C., the activity of rHIV RT was destroyed.
In this context, the test agent preferably is added when the template RNA, the primer which is complementary to the template RNA, and the dNTPs are mixed in the presence of the sample. Accordingly, although the sample may contain active RT, cDNA transcription by the RT can be inhibited by the presence of the test agent in the reaction mixture.
The inhibiting properties of the test agent are reflected in an increase in CT value for the sample which contains the test agent.
An rHIV RT solution (Master Mix solution)was prepared which contained 5 μL 10× RT reaction buffer, 11 μL 25 mM MgCl2, 10 μL 10 mM dNTP working stock solution, 2.5 μL 50 μM oligo dT, 1 μL RNAse inhibitor and 1.25 μL rHIV RT. The total volume of the Master Mix solution was 30.75 μL.
were added to 30.75 μL of the Master Mix solution. Thus, the reaction mixture contained 50 μL total solution volume.
The controls for the present example included a positive control containing 18.25 μL water plus 1 μL RNA, and a negative control containing 19.25 μL water. […]

Test [2] concerns the target T2, taq polymerase (Thermus aquaticus, UniProt P19821).
T2 construct: purchased Perkin Elmer PE 4304437
In words: AZT included in the PCR reaction mixture in place of dT (TaqMan PCR step). Format: biochemical. The source says:
Next, an aliquot of the cDNA formed in the RT step above is brought into the Taqman® instrument (PE Model 7700) and put into a reaction mixture which contains Taqman® Universal master mix (taq polymerase in buffer), beta actin-specific forward primer, beta actin-specific reverse primer, and beta actin Taqman® probe. The PCR step takes place in the instrument under standard Taqman® PCR conditions. Although, as described above, the present method is depicted as a two test tube reaction, one skilled in the art will realize that these steps can be combined in a single reaction vessel.
The transcriptase reaction was initiated by placing the reaction mixture in a MWG Thermocycler, or equivalent, under thermocycling conditions at 25° C. for 10 minutes, then at 37° C. for 60 minutes, and finally at 95° C. for 5 minutes. This final thermocycling step deactivated the rHIV RT. Next 5 μL of the post-thermocycle RT reaction mixture, which presumably contained cDNA, were added to 45 μL of the Master Mix solution. The Master Mix Solution contained 25 μL 2×Taqman Universal Master Mix, 5 μL beta Actin Forward Primer, 5 μL Beta Actin Reverse Primer and […]. Thus, the total PCR reaction mixture contained 50 μL. […]
For orientation: In qPCR the cycle at which signal appears reflects the starting amount.

Setting [3] is: AZT 1.25 mM down to 250 μM in RT reaction mixture with a fixed concentration of dT, all concentrations.

T2 sequence (P19821 whole entry): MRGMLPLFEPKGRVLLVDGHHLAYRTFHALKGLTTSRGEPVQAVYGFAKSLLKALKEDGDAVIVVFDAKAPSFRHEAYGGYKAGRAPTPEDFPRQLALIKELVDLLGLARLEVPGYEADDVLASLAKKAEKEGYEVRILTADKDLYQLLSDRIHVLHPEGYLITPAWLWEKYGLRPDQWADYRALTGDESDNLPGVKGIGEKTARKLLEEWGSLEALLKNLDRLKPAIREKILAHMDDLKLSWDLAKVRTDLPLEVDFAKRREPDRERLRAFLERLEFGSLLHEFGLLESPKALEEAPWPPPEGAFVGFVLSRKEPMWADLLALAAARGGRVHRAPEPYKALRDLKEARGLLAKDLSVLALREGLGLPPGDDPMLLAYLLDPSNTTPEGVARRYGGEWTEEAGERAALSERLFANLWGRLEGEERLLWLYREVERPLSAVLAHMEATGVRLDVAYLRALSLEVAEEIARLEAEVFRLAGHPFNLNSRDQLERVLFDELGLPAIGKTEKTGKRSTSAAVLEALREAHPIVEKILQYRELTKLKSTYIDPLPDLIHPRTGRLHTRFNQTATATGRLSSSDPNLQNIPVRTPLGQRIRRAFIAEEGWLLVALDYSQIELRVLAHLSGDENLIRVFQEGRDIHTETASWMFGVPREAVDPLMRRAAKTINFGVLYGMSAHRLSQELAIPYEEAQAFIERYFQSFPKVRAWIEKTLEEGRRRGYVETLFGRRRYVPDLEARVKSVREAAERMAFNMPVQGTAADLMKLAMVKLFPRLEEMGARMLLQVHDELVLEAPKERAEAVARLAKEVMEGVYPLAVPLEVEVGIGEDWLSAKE

As to `Cc1cn([C@H]2C[C@H](N=[N+]=[N-])[C@@H](CO)O2)c(=O)[nH]c1=O` [AZT], the “amplification of cDNA after the PCR step” value in test [1] (AZT 250 μM to 1.25 mM added to the rHIV-RT reaction mixture in place of dT) is “no amplification of cDNA was observed”. Moreover, in test [1] (setting [3]), the inhibition of activity is on record as 100% and the “observed CT” value is listed as “greater than 40 cycles”. The “amplification of the cDNA after the PCR step” value in test [2] is “NO amplification”.
